The results in this text go back to US7901893B2, “NPC1L1 (NPC3) and methods of identifying ligands thereof” (Merck Sharp & Dohme Corp., priority 2004, dated 2011).

The target in experiment [1] is T1, human NPC1L1 (Homo sapiens, UniProt Q9UHC9, G1187D/M616T/T1073A).
T1 sequence (Q9UHC9 22-1332 isoform Q9UHC9-2 M616T/T1046A/G1160D limits assumed): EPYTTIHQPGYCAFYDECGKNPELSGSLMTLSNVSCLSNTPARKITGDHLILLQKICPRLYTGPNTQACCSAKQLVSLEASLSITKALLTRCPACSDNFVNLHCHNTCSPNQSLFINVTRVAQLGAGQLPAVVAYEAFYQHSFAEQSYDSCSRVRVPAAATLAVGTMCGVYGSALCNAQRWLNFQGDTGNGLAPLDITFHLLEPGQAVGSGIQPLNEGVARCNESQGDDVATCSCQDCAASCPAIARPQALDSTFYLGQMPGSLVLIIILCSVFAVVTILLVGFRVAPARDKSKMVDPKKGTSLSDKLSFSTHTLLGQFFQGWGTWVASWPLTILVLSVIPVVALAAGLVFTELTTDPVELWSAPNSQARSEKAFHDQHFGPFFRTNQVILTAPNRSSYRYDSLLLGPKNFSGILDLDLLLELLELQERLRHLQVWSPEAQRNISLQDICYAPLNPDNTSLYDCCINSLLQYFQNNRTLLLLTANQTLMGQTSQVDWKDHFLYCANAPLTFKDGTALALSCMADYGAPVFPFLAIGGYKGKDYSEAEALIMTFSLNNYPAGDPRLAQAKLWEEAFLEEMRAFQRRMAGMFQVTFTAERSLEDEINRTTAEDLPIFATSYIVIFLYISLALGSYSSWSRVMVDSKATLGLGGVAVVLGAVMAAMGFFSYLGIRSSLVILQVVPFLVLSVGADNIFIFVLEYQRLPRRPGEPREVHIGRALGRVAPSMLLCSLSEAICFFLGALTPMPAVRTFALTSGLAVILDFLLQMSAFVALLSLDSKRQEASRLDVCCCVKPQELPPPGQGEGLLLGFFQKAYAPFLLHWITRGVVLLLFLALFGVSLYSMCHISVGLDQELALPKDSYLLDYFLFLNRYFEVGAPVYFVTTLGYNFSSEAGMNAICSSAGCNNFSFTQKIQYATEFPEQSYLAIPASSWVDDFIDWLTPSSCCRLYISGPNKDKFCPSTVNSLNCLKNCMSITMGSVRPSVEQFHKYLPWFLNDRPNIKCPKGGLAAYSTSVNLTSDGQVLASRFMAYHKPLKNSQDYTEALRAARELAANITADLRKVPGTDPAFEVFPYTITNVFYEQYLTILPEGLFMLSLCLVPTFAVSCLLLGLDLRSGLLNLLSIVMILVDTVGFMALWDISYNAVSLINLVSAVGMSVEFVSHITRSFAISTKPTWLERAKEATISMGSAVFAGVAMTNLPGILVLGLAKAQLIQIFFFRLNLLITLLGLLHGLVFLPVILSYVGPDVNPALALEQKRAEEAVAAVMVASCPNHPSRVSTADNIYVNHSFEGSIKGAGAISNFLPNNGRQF
The experiment can be described thus: Binding to membranes of HEK-293 cells expressing recombinant human NPC1L1. Also noted: expressed in transfected cells; host or cells: HEK-293 cells (ATCC), transient, pCR3.1; membranes. The following applies: 0.03% sodium taurocholate and 0.05% digitonin; 1.25 mg protein/ml, 100 nM 1. On the procedure:
Transient expression of NPC1L1. Plasmid pCR3.1 expressing rat NPC1L1 (Genbank AY437867) or human NPC1L1 (Genbank AY437865) were prepared using standard molecular biology protocols. HEK-293 cells (ATCC) were seeded at 10×10^6 cells per T-225 flask (Corning) in DMEM containing 10% fetal calf serum, 4.5 g/L D-glucose and L-glutamine, 18 hours prior to transfection. They were transiently transfected with 25 μg of DNA using Fugene transfection reagent (Roche Biochemical) at a ratio of 6:1 Fugene:DNA. Following transfection, the cells were incubated at 37° C. and 5% CO2 for 48 hours, and then harvested using PBS based cell dissociation buffer (Gibco), pelleted at 500×g, snap frozen on dry ice, and stored at −80° C.
Membrane preparation from HEK-293 cells. Membranes were prepared by resuspending the frozen cell pellets in ten volumes of 20 mM HEPES/Tris buffer at pH 7.40 containing 8% sucrose, and sonicating the suspensions with a probe sonicator on ice until most of the cells were lysed. To isolate the membranes, the sonicates were centrifuged at 1600×g for 10 min to remove cell debris, and then the supernatants were centrifuged at 125,000×g for 1 hour to recover the membranes. These membranes were resuspended in 20 mM HEPES/Tris buffer at pH 7.40 containing 160 mM NaCl and 5% glycerol, and stored at 10-20 mg/ml protein at −80° C.
Analog structures are defined in Table 12.

The target in the next experiment is rat NPC1L1 (Rattus norvegicus, UniProt Q6T3U3). The experiment can be described thus: ^35S-2 competition binding, rat NPC1L1 transfected CHO cells. The arrangement: expressed in transfected cells; pCDNA3). The following applies: 5 nM ^35S-2, 2 hours at 37° C.; read-out: Recombinant rat NPC1L1 Ki. On the procedure: Rat NPC1L1 transfected CHO cells (˜500,000 cells/assay) were incubated with 5 nM ^35S-2 (˜1 million dpm/assay) for 2 hours at 37° C. in the absence or presence of increasing concentrations of EZE-glucuronide (compound 1), compounds 2, 3, 5, 6, or 8. Compound 8 is an analog of compound 2 wherein the hydroxyl group in the 3-hydroxylpropyl moiety of 2 is replaced with an oxo group.

Experiment [2] has as its system brush border membranes from NPC1L1 knockout (−/−) mice. The experiment is described as follows: Binding assay with brush border membranes from NPC1L1 deficient mice. The arrangement: species or system mouse. On the procedure: Brush border membranes vesicles were prepared from intestinal tissues of wild type and NPC1L1 knockout (−/−) mice. 15, 30 and 60 μg protein/assay of brush border membranes vesicles were incubated with 4 nM ^35S-2 in buffer A for 3 hours at 37° C. in the presence and absence of 100 μM EZE-glucuronide.
For FIG. 14A, enterocyte brush border membranes were prepared from NPC1L1 deficient male mice and same sex wild-type littermates, and tested for binding of 1. […] Membranes from wild type mice are on the left and from NPC1L1 deficient mice on the right.

Experiment [3] concerns the target T1, human NPC1L1. The experiment can be described thus: ^35S-2 competition binding, human NPC1L1 transfected CHO cells. The arrangement: expressed in transfected cells; host or cells: CHO cells (pCDNA3, XbaI/NotI fragment). The settings on record: for Kd: 5 nM ^35S-2, 2 hours at 37° C., read-out: affinity (Kd) for human recombinant NPC1L1. On the procedure: Human NPC1L1 transfected CHO cells (˜600,000 cells/assay) were incubated with 5 nM ^35S-2 (˜1 million dpm/assay) in buffer A for 2 hours at 37° C. in the absence or presence of increasing concentrations of EZE-glucuronide (compound 1), compounds 2, 3, 5, 6, or 8.

Molecules are shown by their SMILES. Entries after “also recorded” stand apart in the source; their conditions may differ.

On to `O=C(O)[C@H]1O[C@@H](Oc2ccc([C@@H]3[C@@H](CCCc4ccc(F)cc4)C(=O)N3c3ccc(F)cc3)cc2)[C@H](O)[C@@H](O)[C@@H]1O` [Compound 3], for which the figures for the Ki at human NPC1L1 [1] and on rat NPC1L1 were 1000 nM and 2400 nM, respectively.

As to `O=C(O)[C@H]1O[C@@H](Oc2ccc([C@@H]3[C@@H](CC[C@@H](O)c4ccc(F)cc4)C(=O)N3c3ccc(F)cc3)cc2)[C@H](O)[C@@H](O)[C@@H]1O` [Compound 5], the Ki at human NPC1L1 [1] came out at 1300 nM; on rat NPC1L1 it was 5800 nM.

In the case of `CS(=O)(=O)NCC#Cc1ccc(N2C(=O)[C@H](CC[C@H](O)c3ccc(F)cc3)[C@H]2c2ccc(O[C@@H]3O[C@H](C(=O)O)[C@@H](O)[C@H](O)[C@H]3O)cc2)cc1` [Compound 2, 4-[(2S,3R)-3-[(3S)-3 (4-fluorophenyl)-3-hydroxypropyl]-1-(4-{3-[(methylsulfonyl)amino]prop-1-yn-1-yl}phenyl)-4-oxoazetidin-2-yl]phenyl β-D-glucopyranosiduronic acid], the “binding to membranes from NPC1L1 deficient mice” value in experiment [2] (4 nM ^35S-2) is reported as “no detectable binding”. The Ki on rat NPC1L1 is 12 nM. Also, the Kd at human NPC1L1 [3] stood at 21 nM. Further, the “potency relative to ezetimibe glucuronide (1)” value at human NPC1L1 [3] (human recombinant NPC1L1) is listed as “approximately 50 fold”.

Turning to `O=C(O)[C@H]1O[C@@H](Oc2ccc([C@@H]3[C@@H](CC[C@H](O)c4ccc(F)cc4)C(=O)N3c3ccc(F)cc3)cc2)[C@H](O)[C@@H](O)[C@@H]1O` [Compound 1, Ezetimibe glucuronide], the “specific binding to membranes from NPC1L1 deficient mice” value in experiment [2] (500 nM 1, 0.03% taurocholate, 0.05% digitonin) is given as “no detectable specific binding affinity; also recorded: virtually undetectable”. Besides, the Ki on human NPC1L1 [1] came out at 220 nM; on rat NPC1L1, 790 nM. The Kd at human NPC1L1 [3] is 907 nM.

Turning to `O=C(O)C1OC(Oc2ccc(C3C(CCC(O)c4ccc(F)cc4)C(=O)N3c3ccc(F)cc3)cc2)C(O)C(O)C1O` (single isomer, unassigned) [Compound 4], on human NPC1L1 [1], the Ki worked out at 130000 nM.

With `O=C(CC[C@H]1C(=O)N(c2ccc(F)cc2)[C@@H]1c1ccc(O[C@@H]2O[C@H](C(=O)O)[C@@H](O)[C@H](O)[C@H]2O)cc1)c1ccc(F)cc1` [Compound 6], the figures for the inhibitory constant (Ki) on human NPC1L1 [1] and at rat NPC1L1 were 14000 nM and 84500 nM, respectively.
